In data set [1] the test system is RNA Polymerase II Serine 5 phosphorylation in A549 cells overexpressing CDK7-mutant (C312S). As to the kind of experiment: Imaging-based cellular RNA PolII Ser5 phosphorylation assay in A549 cells overexpressing CDK7-mutant (C312S). Particulars: RNA PolII Ser5 phosphorylation, averaged over all measurements; for IC50: Homo sapiens, A549, A549 cells overexpressing CDK7-mutant (C312S), read-out: CDK7_A549 mutant hCDK7(pIC50) (converted); for CDK7_A549 mutant hCDK7(pIC50): A549 cells overexpressing CDK7-mutant (C312S). The data set is classed as cell-based, human. The method in brief: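 Readout was automated imaging of anti-phospho-Ser5 Rpb1 CTD immunofluorescence, with IC50 fitted to % control versus concentration. Cells were A549 stably overexpressing non-covalently targetable CDK7 C312S alongside wild-type, exposed to compound 3 h at 37 °C. DMSO and 10 μM reference compound served as controls.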

Data set [2] relates to RNA Polymerase II Serine 5 phosphorylation (Rpb1 CTD, downstream substrate of CDK7) in A549 cells. Nature of the data set: Imaging-based cellular RNA PolII Ser5 phosphorylation assay in A549 cells. Type of data set: cell-based, human. Particulars: wild-type CDK7, RNA PolII Ser5 phosphorylation, averaged over all measurements; for IC50: Homo sapiens, A549, A549 cells, read-out: CDK7_A549 Wild-type CDK7 (pIC50) (converted). The method in brief:
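IC50 derived by fitting % control (DMSO high, 10 μM reference low) against concentration, with Hill slope. Readout: high-content imaging of phospho-Ser5 Rpb1 CTD antibody staining in fixed, permeabilized A549 cells exposed to compound 3 h after 20 h culture in 1% FBS DMEM.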

Data set [3] addresses CDK7/cyclinH/MAT1 trimeric complex (Homo sapiens, UniProt P50613). Nature of the data set: In vitro CDK7 assay, potency of irreversible covalent inhibitors (kinact/KI), coupled PK/LDH ADP readout at 340 nm.
The mark [4] stands for this setting: CDK7 (20 nM enz.) (KI, μM), 20 nM enzyme.
The mark [5] stands for this setting: CDK7 (KI(μM)), […], 1 mM ATP, room temperature, averaged values over all measurements.
[6] abbreviates: read-out: CDK7 (20 nM enz.) (kinact, s^−1), 20 nM enzyme.
The mark [7] stands for this setting: read-out: CDK7 (20 nM enz.) (kinact/KI, M^−1*s^−1), 20 nM enzyme.
Setting [8] is: read-out: CDK7 (kinact, s^−1), kinact = maximal rate of inactivation, 1 mM ATP, room temperature, averaged values over all measurements.
[9] abbreviates: read-out: CDK7 (kinact/KI, M^−1*s^−1), potency of irreversible covalent inhibitors, 1 mM ATP, room temperature, averaged values over all measurements.
Where [10] appears, read: read-out: CDK7 (20 nM enz.) (kobs/[I], M^−1*s^−1), 20 nM enzyme.

Read-outs that look alike come from different tables or passages of the source. A value given as a limit tells only on which side of the number the result lay.

CDK7/cyclinH/MAT1 trimeric complex, sequence (P50613 whole entry): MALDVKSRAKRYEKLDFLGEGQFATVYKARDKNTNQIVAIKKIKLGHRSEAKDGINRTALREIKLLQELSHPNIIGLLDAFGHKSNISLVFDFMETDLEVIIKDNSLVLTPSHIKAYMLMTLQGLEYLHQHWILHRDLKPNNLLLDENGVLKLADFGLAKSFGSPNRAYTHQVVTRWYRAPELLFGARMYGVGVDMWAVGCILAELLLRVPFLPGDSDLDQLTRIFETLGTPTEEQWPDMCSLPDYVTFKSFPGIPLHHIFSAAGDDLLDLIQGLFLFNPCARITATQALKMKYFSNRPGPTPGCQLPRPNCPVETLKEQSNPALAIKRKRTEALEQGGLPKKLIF
CDK7/cyclinH/MAT1 trimeric complex, sequence (P51946 whole entry partner): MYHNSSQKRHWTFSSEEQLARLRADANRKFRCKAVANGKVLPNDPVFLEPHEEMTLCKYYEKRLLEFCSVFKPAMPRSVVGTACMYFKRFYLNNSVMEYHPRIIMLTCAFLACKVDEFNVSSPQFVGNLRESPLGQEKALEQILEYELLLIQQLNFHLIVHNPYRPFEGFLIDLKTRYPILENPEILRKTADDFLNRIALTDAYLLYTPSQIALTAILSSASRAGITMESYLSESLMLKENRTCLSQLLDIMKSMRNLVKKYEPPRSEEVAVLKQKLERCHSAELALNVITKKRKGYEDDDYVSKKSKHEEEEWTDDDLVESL
CDK7/cyclinH/MAT1 trimeric complex, sequence (P51948 whole entry partner): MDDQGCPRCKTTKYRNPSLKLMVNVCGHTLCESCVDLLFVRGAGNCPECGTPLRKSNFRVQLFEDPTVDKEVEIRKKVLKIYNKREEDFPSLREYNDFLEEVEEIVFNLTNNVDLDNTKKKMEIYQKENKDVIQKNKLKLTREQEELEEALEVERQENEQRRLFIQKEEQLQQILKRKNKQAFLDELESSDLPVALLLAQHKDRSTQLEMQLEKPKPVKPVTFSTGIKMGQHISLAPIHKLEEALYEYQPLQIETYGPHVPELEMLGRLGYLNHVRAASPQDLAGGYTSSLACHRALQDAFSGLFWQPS

For the compound `C=CC(=O)Nc1ccc(C(=O)Nc2ccc3c(c2)Nc2nccc(C4CCOCC4)c2CO3)cc1` [Compound 1], the melting point (as a rule, the temperature of the solid-liquid transition) stood at 281.1 °C. Further, the IC50 in data set [1] is roughly 8510 nM. Also, the IC50 in data set [2] was 132 nM. Also, the Ki in data set [3] (setting [4]) is 0.0456 µM. The compound further had a Ki in data set [3] (setting [5]) of 0.107 µM. Besides, in data set [3] (setting [6]), the maximal inactivation rate constant (kinact) – broadly, the rate constant of inactivation at saturating inhibitor – came out at 5.77e-05 s⁻¹. Besides, the kinact/KI in data set [3] (setting [7]) is 1270 M⁻¹ s⁻¹. Further, the kinact in data set [3] (setting [8]) turned out to be 0.0003 s⁻¹. In data set [3] (setting [9]), the kinact/KI came out at 2030 M⁻¹ s⁻¹.
Turning to `C=CC(=O)N1CC(N2CCC(c3ccc4c(c3)OCc3c(N5CCOCC5)ccnc3N4)CC2)C1` [Compound 35], the melting point amounted to 117.9 °C. In addition, in data set [1], the IC50 is greater than 10000 nM. In addition, the IC50 in data set [2] was 692 nM. In data set [3] (setting [5]), this compound gave a Ki of 0.123 µM. For the same compound, the inactivation rate constant (kinact) in data set [3] (setting [8]) is 0.000133 s⁻¹. The kinact/KI in data set [3] (setting [9]) stood at 1090 M⁻¹ s⁻¹.
`C=CC(=O)N1CC(N2CCC(c3cc4c(cn3)OCc3c(N5CCOCC5)ccnc3N4)CC2)C1` [Compound 83] showed a melting point of 238.4 °C. The “CDK7_A549 mutant hCDK7(pIC50)” value in data set [1] was less than 5. Besides, in data set [2] (A549 cells), the “CDK7_A549 Wild-type CDK7 (pIC50)” value was 6.95. Besides, the kinact/KI in data set [3] (setting [10]) worked out at 782 M⁻¹ s⁻¹.
The compound `C=CC(=O)N1CC(N2CCC(c3cc4c(c(C)n3)OCc3c(-c5cnn(C)c5)ccnc3N4)CC2)C1` [Compound 164] had a melting point of 277.8 °C. In addition, in data set [1], the IC50 is greater than 10000 nM. In addition, in data set [2], the IC50 was 55 nM. Further, in data set [3] (20 nM enzyme), the “CDK7 (20 nM enz.) (kinact, s^−1)” value came out at 7.933e-05 s⁻¹. The Ki in data set [3] (setting [4]) was 0.0786 µM. In data set [3] (setting [7]), the kinact/KI amounted to 1010 M⁻¹ s⁻¹.
For `C=CC(=O)N1CC(N2CCC(c3cc4c(c(C)n3)OCc3c(N5CCOCC5)ccnc3N4)CC2)C1` [Compound 173], the melting point amounted to 236.9 °C. In addition, in data set [1], the “CDK7_A549 mutant hCDK7(pIC50)” value was less than 5.4. The IC50 in data set [2] was 64.6 nM. In data set [3] (setting [4]), this compound showed a Ki of 0.0574 µM. In addition, the kinact in data set [3] (setting [6]) turned out to be 7.26e-05 s⁻¹. Further, the kinact/KI in data set [3] (setting [7]) turned out to be 1260 M⁻¹ s⁻¹.
With `C=CC(=O)N1CC(N2CCC(c3cc4c(c(C5CC5)n3)OCc3c(N5CCOCC5)ccnc3N4)CC2)C1` [Compound 272], the melting point is 189.9 °C. Besides, the IC50 in data set [1] was greater than 10000 nM. In addition, the IC50 in data set [2] is 44.7 nM. The compound further gave a Ki in data set [3] (setting [4]) of 0.0212 µM. Moreover, the inactivation rate constant (kinact) in data set [3] (setting [6]) was 2.13e-05 s⁻¹. For the same compound, in data set [3] (setting [7]), the kinact/KI was found to be 1010 M⁻¹ s⁻¹.
As for `CC#CC(=O)N1CC(N2CCC(c3cc4c(c(C)n3)OCc3c(N5CCOCC5)ccnc3N4)CC2)C1` [Compound 279], the melting point turned out to be 178.5 °C. Further, the IC50 in data set [1] is greater than 10000 nM. In addition, the IC50 in data set [2] is 138 nM. Besides, in data set [3] (setting [4]), the Ki was 0.233 µM. Further, the kinact in data set [3] (setting [6]) was 2.96e-05 s⁻¹. Also, the kinact/KI in data set [3] (setting [7]) is 127 M⁻¹ s⁻¹.
Compound `C=CC(=O)N1CC(N2CCC(c3cc4c(c(C#N)n3)OCc3c(N5CCOCC5)ccnc3N4)CC2)C1` [Compound 306] registered a melting point of 256.7 °C. Also, the IC50 in data set [1] is greater than 10000 nM. The IC50 in data set [2] was 123 nM. Also, the kinact/KI in data set [3] (setting [10]) is 1170 M⁻¹ s⁻¹.
The compound `CC#CC(=O)N1CC(N2CCC(c3cc4c(c(-c5ncc[nH]5)n3)OCc3c(N5CCOCC5)ccnc3N4)CC2)C1` [Compound 369] gave a melting point of 229.2 °C. In addition, in data set [1], the IC50 is greater than 10000 nM. In addition, the IC50 in data set [2] was 245 nM. In addition, the Ki in data set [3] (setting [4]) is 0.0216 µM. For the same compound, the inactivation rate constant (kinact) in data set [3] (setting [6]) turned out to be 3e-05 s⁻¹. For the same compound, the kinact/KI in data set [3] (setting [7]) is 1390 M⁻¹ s⁻¹.
Compound `C=CC(=O)N1CC(N2CCC(c3cc4c(c(-c5ncc[nH]5)n3)OCc3c(N5CCOCC5)ccnc3N4)CC2)C1` [Compound 378] yielded a melting point of 195.5 °C. Besides, the IC50 in data set [1] was greater than 3980 nM. Further, the IC50 in data set [2] is 162 nM. Besides, the kinact/KI in data set [3] (setting [10]) came out at 1740 M⁻¹ s⁻¹.
`CC#CC(=O)N1CC(N2CCC(c3cc4c(c(C5CC5)n3)OCc3c(N5CCOCC5)ccnc3N4)CC2)C1` [Compound 403]: the melting point came to 174.8 °C. For the same compound, the IC50 in data set [1] is greater than 10000 nM. The IC50 in data set [2] was 155 nM. Moreover, the Ki in data set [3] (setting [4]) stood at 0.0766 µM. In addition, in data set [3] (setting [6]), the inactivation rate constant (kinact) was determined as 4.63e-05 s⁻¹. In addition, the kinact/KI in data set [3] (setting [7]) was 605 M⁻¹ s⁻¹.

The values above are taken from patent US20240254138A1, “TRICYCLIC PYRIMIDINES AS CYCLIN-DEPENDENT KINASE 7 (CDK7) INHIBITORS” (JANSSEN PHARMACEUTICA NV, priority 2021, published 2024).
